Reference: patent US20040109845A1, “Method for inhibiting articular cartilage matrix calcification” (priority 2001, published 2004)
Entries after “also recorded” stand apart in the source; their conditions may differ.

Assays:
[1] = system: TGase activity (tTGase and Factor XIIIa) in meniscal cells; assay: TGase activity in cultured knee meniscal cells (BP incorporation into N,N-dimethylcasein); assay type: cell-based, human; conditions: meniscal cells, 72 hrs, IL-1 or TNFα 10 ng/ml; NMMA 10 μM or A20 transfection
Description: Meniscal cells were maintained in DMEM high glucose and supplemented with 10% FCS, 1% L-glutamine, 100 units/ml Penicillin and 50 μg/ml Streptomycin (Omega Scientific, Tarzana, Calif.) and cultured at 37° C. with 5% CO2. In monolayer cell culture studies involving stimulation by TGFE[…] or IL-1, the cells were placed in DMEM high glucose containing 1% FCS, 1% L-glutamine, 100 units/ml Penicillin and 50 μg/ml Streptomycin. In all other studies, the cells were cultured in complete medium (as described above). Only primary or first passage meniscal cells were studied.
TGase activity was measured by modifications to a previously described method (35). Specifically, we coated 96 well ImmunoModule plates (Nunc, Rochester, N.Y.) with 200 μl of 20 mg/ml N,N-dimethylcasein for 1 hr at 23° C. The N,N-dimethylcasein was removed and nonspecific protein binding was blocked by adding 3% BSA in 100 mM Tris, pH 8.5, 150 mM NaCl, 0.05% Tween-20 (TBST) to each well for an additional 1 hr at 23° C. Then, aliquots of 5 μg of total cellular protein from meniscal or TC28 cells that had been lysed and sonicated (in 5 mM Tris HCl, 0.25 M sucrose, 0.2 mM MgSO4, 2 mM DTT, 0.4 mM PMSF, 0.4% Triton X100, pH 7.5), were added to the plate in triplicate. To measure TGase in extracts of whole menisci, 50 mg dry weight of tissue from the central zone of each medial meniscus was used as the source (after solubilization and sonication) for aliquots of 5 μg of soluble protein. Fifty μl of solution A (100 mM Tris, pH 8.5 and 20 mM CaCl2) was added to all samples for TGase assay, followed by the addition of 50 μl of solution B (100 mM Tris, pH 8.5, 40 mM DTT and freshly added 2 mM 5-(Biotinamido) pentylamine (BP)). The plates were incubated for 1 hr at 37° C. The wells were washed once with TBST containing 1 mM EDTA and then three times with TBST. One hundred μl of a 1:500 dilution of streptavidin-AP in 3% BSA/TBST was added to each well for 1 hr at 23° C. The wells were washed twice with TBST, and 200 μl of solution C (100 mM Tris, pH 9.8, mM NaCl, 5 mM MgCl2, 1 mg/ml of freshly added p-nitrophenylphosphate) was added to each well. Readings at OD410 were taken over 15 minutes. Purified guinea pig liver TGase (Sigma) was used to prepare a standard curve. TGase activity was designated as the amount of BP incorporated into casein (per μg cellular DNA, determined chromogenically following precipitation in perchlorate (28), or, where indicated, per μg protein, determined as previously described (28)).
To directly induce expression of each TGase in meniscal cells, 5×10^5 primary cells were plated in 60 mm dishes and allowed to adhere overnight. We modified (28) the manufacturer's protocol for the Lipofectamine Plus kit (Life Technologies, Grand Island, N.Y.). To optimize the transfection of meniscal cells, we added 2.0 ml of serum-free DMEM/F12 containing 0.00015% digitonin to washed cells and incubated for 3 min at 23° C. Then, media was removed, and cells transfected at 37° C. for 7 hrs, followed by removal of the media and addition of complete DMEM high glucose medium. Transfection of each TGase into TC28 cells was done by the same procedure, with the exception that the digitonin permeabilization step was omitted.

[2] = system: NO release by meniscal cells; assay: NO release by cultured meniscal cells (Greiss reaction); assay type: cell-based, human; conditions: 72 hrs, IL-1 or TNFα 10 ng/ml, NMMA 10 μM or A20 transfection
Description: NO release by 3×10^5 meniscal cells, which were plated and stimulated with TNFα (10 ng/ml) or IL-1 (10 ng/ml), with or without 10 μM NMMA (FIG. 8A), for 72 hrs was studied. Conditioned media were collected and 50 μl aliquots analyzed for NO release using the Greiss Reaction, with results expressed as μmoles released per μg DNA. […] After 72 hrs of incubation with TNFα or IL-1, the conditioned media were collected from the cultured, transfected cells and analyzed in triplicate for NO release, as above. Data pooled from 4 normal donors studied in triplicate for FIGS. 8A and 8B. *p<0.05.
PPi was determined by differential adsorption on activated charcoal of UDP-D-[6-^3H] glucose (Amersham, Chicago, Ill.) from the reaction product 6-phospho [6-^3H] gluconate (28). Units of NTPPPH and AP were designated as micromoles of substrate hydrolyzed per hour (per μg DNA in each sample) (28). NO release by cultured meniscal cells was measured using the Greiss reaction (33). Concentrations or specific activities of PPi, NTPPPH, and AP were equalized for cellular DNA concentrations in each well.

With CNC(=N)NCCC[C@H](N)C(=O)O [NMMA, reference compound] the “Effect on IL-1 and TNFα-induced TGase activity” value [1] was “blocked the ability of both IL-1 and TNFα to induce TGase activity; also recorded: attenuated LL-1 and TNFα-induced TGase activity” and the “Effect on IL-1 and TNFα-induced NO release” value [2] was “attenuated IL-1 and TNFα-induced NO release; also recorded: suppresses IL-1 and TNFα-induced NO release”.
